Where “and” joins values, the source holds several entries; their conditions need not be identical. Equal entries are not always repeated. Where two headings read alike, the source gives them in different places.
Legend:
E. coli IleRS1 = system: E. coli IleRS1; design: method as in earlier work; conditions: activation step, absence of tRNA; cited from earlier work
W130Q PmIleRS2 = test: ATP-PPi exchange assay, mupirocin inhibition of amino acid activation; type: biochemical, Priestia (Bacillus) megaterium; conditions: for vo (initial enzyme velocity): Replica 1-3
Experimental: L-Ile and ATP concentrations ranged from 1/10 KM to 10 KM values. When measuring the KI towards one of the substrates, the other was held in saturation (concentrations at least 10 KM). The aliquots of the reaction mixture (1–2.5 μl) were quenched in 2 volumes of 500 mM NaOAc pH = 4.5, 0.1% SDS, and formed ^32P-ATP was separated from the remaining ^32P-PPi by thin-layer chromatography on Polygram CEL 300 PEI UV254 TLC plates (Macherey-Nagel, cat: 801063) using 750 mM KH2PO4 pH=3.5, 4 M urea buffer. Visualization and quantification of the signals was performed using a Typhoon Phosphoimager 5 (General Electric) and accompanying ImageQuant™ TL software (SV: 10.2). The kinetic constants were determined using a global fit option of the competitive inhibition model of GraphPad Prism 6 software (SV: 6.01). All experiments were performed in triplicates. The kcat was determined by dividing the maximal velocity, VM, with the used enzyme concentration.
Source data are provided as a Source Data file. Data are presented as the average value
± SD of three independent experiments. b) A 2Fo-Fc Fourier difference map of the W130Q-HVGH-PmIleRS2:Ile-AMS […]

wt-HMGH PmIleRS1 = conditions: amino acid activation step; ATP/PPi exchange assay; Ile varied; slow tight binding inhibitor; read-out: KI (MUP)Ile; cited from earlier work
ScIleRS2 [1] = conditions: activation step, absence of tRNA; cited from earlier work
IleRS2 = test: Mupirocin inhibition of IleRS2 compared with IleRS1; type: biochemical, bacteria; conditions: IleRS1 strongly, IleRS2 modestly inhibited
SgIleRS2 = conditions: non-canonical motif; cited from earlier work
wt-HVGH PmIleRS2 = conditions: cited from earlier work
ScIleRS2 [2] = conditions: aminoacylation, with tRNA; cited from earlier work
IleRS1 = target: IleRS1; design: method as in PMID 6258580, PMID 9822630; conditions: type 1 proteins strongly inhibited; cited from earlier work

Q: What does the source list for `C/C(=C\C(=O)OCCCCCCCCC(=O)O)C[C@@H]1OC[C@H](C[C@@H]2O[C@H]2[C@@H](C)[C@H](C)O)[C@@H](O)[C@H]1O` [mupirocin]?
A: Ki (E. coli IleRS1): 6 nM; vo (initial enzyme velocity) (W130Q PmIleRS2; c (mupirocin) = 1.0 μM, c (ATP) 5.0 mM, raw data for KI(MUP) towards ATP): 0.02357 mM/min and 0.02647 mM/min and 0.02323 mM/min; vo (initial enzyme velocity) (W130Q PmIleRS2; c (mupirocin) = 1.0 μM, c (ATP) 10.0 mM, raw data for KI(MUP) towards ATP): 0.0305 mM/min and 0.03243 mM/min and 0.02895 mM/min; vo (initial enzyme velocity) (W130Q PmIleRS2; c (mupirocin) = 1.0 μM, c (ATP) 15.0 mM, raw data for KI(MUP) towards ATP): 0.0343 mM/min and 0.0357 mM/min and 0.0344 mM/min; vo (initial enzyme velocity) (W130Q PmIleRS2; c (mupirocin) = 1.0 μM, c (ATP) 25.0 mM, raw data for KI(MUP) towards ATP): 0.03769 mM/min and 0.03939 mM/min and 0.0387 mM/min; vo (initial enzyme velocity) (W130Q PmIleRS2; c (mupirocin) = 1.0 μM, c (Ile) 10.0 μM, raw data for KI(MUP) towards Ile): 0.0192 mM/min; vo (initial enzyme velocity) (W130Q PmIleRS2; c (mupirocin) = 1.0 μM, c (Ile) 20.0 μM, raw data for KI(MUP) towards Ile): 0.02795 mM/min and 0.02585 mM/min and 0.02685 mM/min; vo (initial enzyme velocity) (W130Q PmIleRS2; c (mupirocin) = 1.0 μM, c (Ile) 40.0 μM, raw data for KI(MUP) towards Ile): 0.03537 mM/min and 0.0321 mM/min and 0.03467 mM/min; vo (initial enzyme velocity) (W130Q PmIleRS2; c (mupirocin) = 1.0 μM, c (Ile) 80.0 μM, raw data for KI(MUP) towards Ile): 0.04151 mM/min and 0.04237 mM/min and 0.04366 mM/min; vo (initial enzyme velocity) (W130Q PmIleRS2; c (mupirocin) = 1.0 μM, c (Ile) 120.0 μM, raw data for KI(MUP) towards Ile): 0.0461 mM/min and 0.04503 mM/min and 0.04686 mM/min; vo (initial enzyme velocity) (W130Q PmIleRS2; c (mupirocin) = 5.0 μM, c (ATP) 5.0 mM, raw data for KI(MUP) towards ATP): 0.0136 mM/min and 0.01356 mM/min and 0.01125 mM/min; vo (initial enzyme velocity) (W130Q PmIleRS2; c (mupirocin) = 5.0 μM, c (ATP) 10.0 mM, raw data for KI(MUP) towards ATP): 0.021 mM/min and 0.0203 mM/min and 0.0182 mM/min; vo (initial enzyme velocity) (W130Q PmIleRS2; c (mupirocin) = 5.0 μM, c (ATP) 15.0 mM, raw data for KI(MUP) towards ATP): 0.02537 mM/min and 0.0244 mM/min and 0.02261 mM/min; vo (initial enzyme velocity) (W130Q PmIleRS2; c (mupirocin) = 5.0 μM, c (ATP) 25.0 mM, raw data for KI(MUP) towards ATP): 0.02943 mM/min and 0.02877 mM/min and 0.02783 mM/min; vo (initial enzyme velocity) (W130Q PmIleRS2; c (mupirocin) = 5.0 μM, c (Ile) 10.0 μM, raw data for KI(MUP) towards Ile): 0.00903 mM/min and 0.00774 mM/min and 0.00698 mM/min; vo (initial enzyme velocity) (W130Q PmIleRS2; c (mupirocin) = 5.0 μM, c (Ile) 20.0 μM, raw data for KI(MUP) towards Ile): 0.01459 mM/min and 0.01343 mM/min and 0.013 mM/min; vo (initial enzyme velocity) (W130Q PmIleRS2; c (mupirocin) = 5.0 μM, c (Ile) 40.0 μM, raw data for KI(MUP) towards Ile): 0.0221 mM/min and 0.01963 mM/min and 0.02145 mM/min; vo (initial enzyme velocity) (W130Q PmIleRS2; c (mupirocin) = 5.0 μM, c (Ile) 80.0 μM, raw data for KI(MUP) towards Ile): 0.02978 mM/min and 0.02747 mM/min and 0.02888 mM/min; vo (initial enzyme velocity) (W130Q PmIleRS2; c (mupirocin) = 5.0 μM, c (Ile) 120.0 μM, raw data for KI(MUP) towards Ile): 0.03377 mM/min; vo (initial enzyme velocity) (W130Q PmIleRS2; c (mupirocin) = 10.0 μM, c (ATP) 5.0 mM, raw data for KI(MUP) towards ATP): 0.00715 mM/min and 0.00752 mM/min and 0.00698 mM/min; vo (initial enzyme velocity) (W130Q PmIleRS2; c (mupirocin) = 10.0 μM, c (ATP) 10.0 mM, raw data for KI(MUP) towards ATP): 0.01301 mM/min and 0.0137 mM/min and 0.0124 mM/min; vo (initial enzyme velocity) (W130Q PmIleRS2; c (mupirocin) = 10.0 μM, c (ATP) 15.0 mM, raw data for KI(MUP) towards ATP): 0.0168 mM/min and 0.01667 mM/min and 0.01548 mM/min; vo (initial enzyme velocity) (W130Q PmIleRS2; c (mupirocin) = 10.0 μM, c (ATP) 25.0 mM, raw data for KI(MUP) towards ATP): 0.02198 mM/min and 0.0226 mM/min and 0.02035 mM/min; vo (initial enzyme velocity) (W130Q PmIleRS2; c (mupirocin) = 10.0 μM, c (Ile) 20.0 μM, raw data for KI(MUP) towards Ile): 0.00596 mM/min and 0.0067 mM/min and 0.0071 mM/min; vo (initial enzyme velocity) (W130Q PmIleRS2; c (mupirocin) = 10.0 μM, c (Ile) 40.0 μM, raw data for KI(MUP) towards Ile): 0.01336 mM/min and 0.01164 mM/min and 0.01202 mM/min; vo (initial enzyme velocity) (W130Q PmIleRS2; c (mupirocin) = 10.0 μM, c (Ile) 80.0 μM, raw data for KI(MUP) towards Ile): 0.02022 mM/min and 0.01917 mM/min and 0.021 mM/min; vo (initial enzyme velocity) (W130Q PmIleRS2; c (mupirocin) = 10.0 μM, c (Ile) 120.0 μM, raw data for KI(MUP) towards Ile): 0.0257 mM/min and 0.02427 mM/min and 0.02578 mM/min; vo (initial enzyme velocity) (W130Q PmIleRS2; c (mupirocin) = 25.0 μM, c (ATP) 5.0 mM, raw data for KI(MUP) towards ATP): 0.00415 mM/min and 0.00472 mM/min and 0.00553 mM/min; vo (initial enzyme velocity) (W130Q PmIleRS2; c (mupirocin) = 25.0 μM, c (ATP) 10.0 mM, raw data for KI(MUP) towards ATP): 0.0064 mM/min and 0.00737 mM/min and 0.0088 mM/min; vo (initial enzyme velocity) (W130Q PmIleRS2; c (mupirocin) = 25.0 μM, c (ATP) 15.0 mM, raw data for KI(MUP) towards ATP): 0.01013 mM/min and 0.00993 mM/min and 0.01101 mM/min; vo (initial enzyme velocity) (W130Q PmIleRS2; c (mupirocin) = 25.0 μM, c (ATP) 25.0 mM, raw data for KI(MUP) towards ATP): 0.01337 mM/min and 0.01219 mM/min and 0.01445 mM/min; vo (initial enzyme velocity) (W130Q PmIleRS2; c (mupirocin) = 25.0 μM, c (Ile) 10.0 μM, raw data for KI(MUP) towards Ile): 0.0021 mM/min and 0.00205 mM/min and 0.00211 mM/min; vo (initial enzyme velocity) (W130Q PmIleRS2; c (mupirocin) = 25.0 μM, c (Ile) 20.0 μM, raw data for KI(MUP) towards Ile): 0.00338 mM/min and 0.00346 mM/min; vo (initial enzyme velocity) (W130Q PmIleRS2; c (mupirocin) = 25.0 μM, c (Ile) 40.0 μM, raw data for KI(MUP) towards Ile): 0.00807 mM/min and 0.00657 mM/min and 0.00667 mM/min; vo (initial enzyme velocity) (W130Q PmIleRS2; c (mupirocin) = 25.0 μM, c (Ile) 80.0 μM, raw data for KI(MUP) towards Ile): 0.012 mM/min and 0.01121 mM/min and 0.01201 mM/min; vo (initial enzyme velocity) (W130Q PmIleRS2; c (mupirocin) = 25.0 μM, c (Ile) 120.0 μM, raw data for KI(MUP) towards Ile): 0.01558 mM/min and 0.01519 mM/min and 0.0161 mM/min; Ki for mupirocin compared with wild-type (W130Q PmIleRS2; kinetic analysis, Supplementary Fig. 8): remained the same; Ki (wt-HMGH PmIleRS1): 0.29 ± 0.02 nM; Ki (ScIleRS2 [1]): 8600 nM; difference in Ki between IleRS1 and IleRS2 (IleRS2): 10^3−10^5 fold; Ki for mupirocin (SgIleRS2): mM range; Ki (wt-HVGH PmIleRS2; amino acid activation step, ATP/PPi exchange assay, Ile varied, read-out: KI (MUP)Ile): 1080 ± 60 nM; Ki (wt-HVGH PmIleRS2; mupirocin inhibition towards Ile, GraphPad Prism output, Repl1-Repl3, Table 1 footnote b gives this enzyme's values as from ref 21, read-out: KI, single replicates): 1040 nM and 990 nM and 1180 nM; Ki (ScIleRS2 [2]): 15000 nM; Ki (IleRS1): low nanomolar range

— article PMC10485003, “Antibiotic hyper-resistance in a class I aminoacyl-tRNA synthetase with altered active site signature motif” (Nature Communications, 2023)
